Measured values as given in ChEMBL document CHEMBL3792342, “Synthesis and biological evaluation of 2-arylimino-3-pyridin-thiazolineone derivatives as antibacterial agents” (Bioorg Med Chem Lett, 2016).
≈ marks a conversion by molar mass, not a printed value.

What was measured:
[1] = system: Staphylococcus epidermidis; assay: Antibacterial activity against Staphylococcus epidermidis ATCC 35984 by broth micro-dilution method; assay type: functional; details: RP62A
Staphylococcus aureus = assay: Antibacterial activity against methicillin-resistant Staphylococcus aureus 8282 by broth micro-dilution method; assay type: functional
[2] = system: Staphylococcus epidermidis; assay: Bactericidal activity against Staphylococcus epidermidis ATCC 35984; assay type: functional; details: RP62A
Escherichia coli = assay: Antibacterial activity against Escherichia coli ATCC 25922 by broth micro-dilution method; assay type: functional
[3] = Cytotoxicity against African green monkey Vero cells; assay type: cell-based; details: chlorocebus sabaeus
[4] = Hemolytic activity in human erythrocytes at 200 uM; assay type: ADME, cell-based; details: erythrocyte

SMILES | MIC [1] [µM] | MIC (Staphylococcus aureus) [µM] | MBC [2] [µM] | MIC (Escherichia coli) [µM] | CC50 [3] [µM] | Activity [4]
CCc1ccccc1/N=C1\S/C(=C\c2ccc(OCC(=O)O)c(OC)c2)C(=O)N1c1ccccc1CC | 25 (≈ 12.9 µg/mL) | 25 (≈ 12.9 µg/mL) | 100 (≈ 51.7 µg/mL) | > 200 | 50 | Non-toxic
O=C(O)c1cccc(-c2ccc(/C=C3\S/C(=N\c4ccc(F)cc4)N(c4ccc(F)cc4)C3=O)s2)c1 | 6.25 (≈ 3.24 µg/mL) | 6.25 (≈ 3.24 µg/mL) | 100 (≈ 51.9 µg/mL) | > 200 | > 200 | Non-toxic
O=C(O)c1cccc(-c2ccc(/C=C3\S/C(=N\c4ccc(Cl)cc4)N(c4ccc(Cl)cc4)C3=O)s2)c1 | 12.5 (≈ 6.89 µg/mL) | 25 (≈ 13.8 µg/mL) | > 200 | > 200 | > 200 | Non-toxic
O=C(O)c1cccc(-c2ccc(/C=C3\S/C(=N\c4ccc(Cl)cc4)N(c4ncccc4F)C3=O)o2)c1 | 12.5 (≈ 6.5 µg/mL) | 12.5 (≈ 6.5 µg/mL) | > 200 | > 200 | > 200 | Non-toxic
O=C(O)c1cccc(-c2ccc(/C=C3\S/C(=N\c4ccc(Cl)cc4)N(c4ccccn4)C3=O)o2)c1 | 6.25 (≈ 3.14 µg/mL) | 6.25 (≈ 3.14 µg/mL) | 50 (≈ 25.1 µg/mL) | > 200 | > 200 | Non-toxic
O=C(O)c1cccc(-c2ccc(/C=C3\S/C(=N\c4ccc(F)cc4)N(c4ccccn4)C3=O)o2)c1 | 12.5 (≈ 6.07 µg/mL) | 12.5 (≈ 6.07 µg/mL) | > 200 | > 200 | > 200 | Non-toxic
O=C(O)c1cccc(-c2ccc(/C=C3\S/C(=N\c4ccccc4)N(c4ccc(Cl)cc4)C3=O)o2)c1 | 6.25 (≈ 3.13 µg/mL) | 6.25 (≈ 3.13 µg/mL) | 50 (≈ 25 µg/mL) | > 200 | > 200 | Non-toxic
O=C(O)c1cccc(-c2ccc(/C=C3\S/C(=N\c4ccccc4)N(c4cccc(F)n4)C3=O)o2)c1 | 6.25 (≈ 3.03 µg/mL) | 6.25 (≈ 3.03 µg/mL) | 100 (≈ 48.5 µg/mL) | > 200 | > 200 | Non-toxic
O=C(O)c1cccc(-c2ccc(/C=C3\S/C(=N\c4ccccc4)N(c4ccc(F)cn4)C3=O)o2)c1 | 12.5 (≈ 6.07 µg/mL) | 12.5 (≈ 6.07 µg/mL) | > 200 | > 200 | > 200 | Non-toxic
O=C(O)c1cccc(-c2ccc(/C=C3\S/C(=N\c4ccccc4)N(c4ccc(F)cc4)C3=O)s2)c1 | 6.25 (≈ 3.13 µg/mL) | 12.5 (≈ 6.26 µg/mL) | 25 (≈ 12.5 µg/mL) | > 200 | > 200 | Non-toxic
O=C(O)c1cccc(-c2ccc(/C=C3\S/C(=N\c4ccccc4)N(c4ccc(F)cn4)C3=O)s2)c1 | 3.13 (≈ 1.57 µg/mL) | 3.13 (≈ 1.57 µg/mL) | 50 (≈ 25.1 µg/mL) | > 200 | > 200 | Non-toxic
O=C(O)c1cccc(-c2ccc(/C=C3\S/C(=N\c4ccc(Cl)cc4)N(c4ccccc4)C3=O)o2)c1 | 6.25 (≈ 3.13 µg/mL) | 6.25 (≈ 3.13 µg/mL) | 100 (≈ 50.1 µg/mL) | > 200 | > 200 | Non-toxic
O=C(O)c1cccc(-c2ccc(/C=C3\S/C(=N\c4ccccc4)N(c4cccnc4Cl)C3=O)o2)c1 | 3.13 (≈ 1.57 µg/mL) | 6.25 (≈ 3.14 µg/mL) | 50 (≈ 25.1 µg/mL) | > 200 | > 200 | Non-toxic
O=C(O)c1cccc(-c2ccc(/C=C3\S/C(=N\c4ccc(F)cc4)N(c4ccc(F)cc4)C3=O)o2)c1 | 100 (≈ 50.2 µg/mL) | 100 (≈ 50.2 µg/mL) | > 200 | > 200 | > 200 | Non-toxic
O=C(O)c1cccc(-c2ccc(/C=C3\S/C(=N\c4ccccc4)N(c4ncccc4F)C3=O)o2)c1 | 12.5 (≈ 6.07 µg/mL) | 12.5 (≈ 6.07 µg/mL) | > 200 | > 200 | > 200 | Non-toxic
O=C(O)c1cccc(-c2ccc(/C=C3\S/C(=N\c4ccc(Cl)cc4)N(c4ccc(Cl)cc4)C3=O)o2)c1 | 25 (≈ 13.4 µg/mL) | 25 (≈ 13.4 µg/mL) | > 200 | > 200 | > 200 | Non-toxic
O=C(O)c1cccc(-c2ccc(/C=C3\S/C(=N\c4ccccc4)N(c4cccnc4[N+](=O)[O-])C3=O)s2)c1 | 1.56 (≈ 0.825 µg/mL) | 3.13 (≈ 1.65 µg/mL) | 12.6 (≈ 6.66 µg/mL) | > 200 | > 200 | Non-toxic
O=C(O)c1cccc(-c2ccc(/C=C3\S/C(=N\c4ccccc4)N(c4ccc(Cl)cc4)C3=O)s2)c1 | 1.56 (≈ 0.807 µg/mL) | 3.13 (≈ 1.62 µg/mL) | 25 (≈ 12.9 µg/mL) | > 200 | > 200 | Non-toxic
O=C(O)c1cccc(-c2ccc(/C=C3\S/C(=N\c4ccccc4)N(c4cccnc4Cl)C3=O)s2)c1 | 1.56 (≈ 0.808 µg/mL) | 3.13 (≈ 1.62 µg/mL) | 6.3 (≈ 3.26 µg/mL) | > 200 | > 200 | Non-toxic
Cc1ncccc1N1C(=O)/C(=C/c2ccc(-c3cccc(C(=O)O)c3)s2)S/C1=N\c1ccccc1 | 12.5 (≈ 6.22 µg/mL) | 12.5 (≈ 6.22 µg/mL) | 100 (≈ 49.8 µg/mL) | > 200 | > 200 | Non-toxic
O=C(O)c1cccc(-c2ccc(/C=C3\S/C(=N\c4ccccc4)N(c4ccc(F)cc4)C3=O)o2)c1 | 25 (≈ 12.1 µg/mL) | 25 (≈ 12.1 µg/mL) | 50 (≈ 24.2 µg/mL) | > 200 | > 200 | Non-toxic
COc1cccc(OC)c1C(=O)N[C@@H]1C(=O)N2[C@@H]1SC(C)(C)[C@@H]2C(=O)O [METHICILLIN] | 3.13 (≈ 1.19 µg/mL) | 100 (≈ 38 µg/mL) | > 200 | > 200 | > 200 | Non-toxic
